20 molecules from patent US12098145B2 (Libra Therapeutics, Inc., priority 2022, dated 2024) can be followed below.

Read-outs that look alike come from different tables or passages of the source.

The target in one assay is T1, TRPML1 (Homo sapiens, UniProt Q9GZU1).
T1 construct: expressed in transfected cells; host or cells: HEK T-REx cells stably expressing GCaMP6f and TRPML1
Nature of the assay: Cellular TRPML1 assay (FLIPR, GCaMP6f calcium read-out). The class given is cell-based. The gist of the method: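 Read-out is GCaMP6f fluorescence over 300 s after compound addition in Ca2+-free Tyrode's buffer, final DMSO 0.5%, on FLIPR Tetra. Cells are HEK T-REx stably co-expressing the indicator and TRPML1, plated 24 h earlier in Optimem + 0.5% FBS and pre-incubated ~10 min at room temperature.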

In the next assay the test system is TFEB. Kind of assay: TFEB translocation assay (TFEB reporter in U2OS cells, imaging). In kind it is cell-based. Particulars: Homo sapiens; U2OS cell line with TFEB reporter, 2 hours incubation, nucleus to cytoplasm ratio, normalized to Torin-1; read-out: TFEB Translocation pEC50 (converted). How it is done:
Example B: TFEB Translocation Assay
Reporter TFEB: the reporter is fused to a sequence of monomeric red fluorescent protein.
The reporter TFEB have been stably expressed in U2OS cell line and used as read-out.
Experiments were performed in 384 MTP well format. Cells were seeded in 384-w at a density of 4000 cells/well in 20 μl/well complete growth medium without antibiotics. Twenty-four hours later, cells were treated with compounds and incubated for further 2 hours. Then the cells were imaged and assayed for the response to various compounds using the reporter for TFEB expressed in the cells as readout.
The experiments were performed in a 384-well format according to the following procedure: • 24 h after seeding, cell culture medium was carefully removed and replaced with 20 μl of Opti-MEM (30′ incubation at 37° C. before compound addition) • Then, cells were incubated with compounds diluted in Opti-MEM+0.015% Tween 80 at the desired concentration, with the reference molecule (agonist) Torin-1 at a top concentration of 1 μM (max signal), and with the other reference molecule (agonist) MLSA-5 at top concentration of 20 μM for 2 hours at 37° C. and 5% CO2. The final percentage of DMSO was 0.5% in all the conditions. • Staining of the nuclei was obtained by incubating the cells with 24 μM/well of Hoechst 3342 in standard Tyrode's buffer for 15 min at RT • Then the cells were fixed with PFA 4% for 30 min at RT • After three washes with standard Tyrode's buffer, samples were acquired by recording two fluorescence emission channels (DS-red and blue) at 20× magnification and with at least 3 fields of view per well in an Operetta CLS microscope (PerkinElmer). • Image analysis was performed by using Harmony software (PerkinElmer). The image analysis involved the following steps: flat-field illumination correction, nuclei segmentation, cytoplasm segmentation and calculation of intensity fluorescence in the cytosol and nuclei compartments. Measurements of signal intensity ratio (nucleus to cytoplasm) was used to obtain information on the effects of compounds on the TFEB translocation. • Data from image analysis measurements were finally loaded and analyzed for normalization and fitting procedures in Genedata Screener© software. Data Analysis
Feature: Mean translocation ratio (mean/well)
Data normalization: Stimulator—Neutral control
The GeneData Screener method we have used, normalizes the median of the Stimulator control wells (Torin-1) to 100% and the median of the Neutral control wells (DMSO) to 0% Activity[%]=100*(x−<Min>)/(<“Max”>−<Min>)

The mark [1] stands for this setting: HEKT-REx/GCaMP6f/TRPML1 cells, FLIPR TETRA, kinetic response over 300 seconds, read-out: TRPML1 FLIPR pEC50 (converted).

T1 sequence (Q9GZU1 whole entry): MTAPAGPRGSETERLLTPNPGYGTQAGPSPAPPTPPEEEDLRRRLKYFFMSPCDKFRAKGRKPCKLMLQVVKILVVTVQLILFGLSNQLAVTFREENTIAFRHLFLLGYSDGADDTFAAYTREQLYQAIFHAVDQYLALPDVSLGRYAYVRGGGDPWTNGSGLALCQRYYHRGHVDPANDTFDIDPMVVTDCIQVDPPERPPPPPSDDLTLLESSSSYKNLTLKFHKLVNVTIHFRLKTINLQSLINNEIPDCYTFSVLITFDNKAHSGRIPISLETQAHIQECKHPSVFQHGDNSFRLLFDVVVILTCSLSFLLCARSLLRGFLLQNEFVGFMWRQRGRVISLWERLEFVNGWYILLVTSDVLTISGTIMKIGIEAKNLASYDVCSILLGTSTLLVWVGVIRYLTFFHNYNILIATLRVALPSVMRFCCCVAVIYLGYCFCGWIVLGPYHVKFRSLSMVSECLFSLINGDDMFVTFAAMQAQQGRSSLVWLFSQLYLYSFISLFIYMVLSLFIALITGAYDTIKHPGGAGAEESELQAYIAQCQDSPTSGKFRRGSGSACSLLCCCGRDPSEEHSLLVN

Turning to `O=C(Nc1ccc(OC2CCOC2)c(F)c1)c1nc(N2CCCC2)oc1CC(F)(F)F` (stereo not shown) [Example 47, N-[3-fluoro-4-(oxolan-3-yloxy)phenyl]-2-(pyrrolidin-1-yl)-5-(2,2,2-trifluoroethyl)oxazol-4-carboxamide], the EC50 at TRPML1 (setting [1]) and with TFEB was 1000 to 10000 nM in each case.
In the case of `O=C(Nc1ccc(OC2CCCC2)c(F)c1)c1nc(N2CC3(C2)CC(F)(F)C3)oc1CC(F)(F)F` [Example 48, N-[4-(cyclopentyloxy)-3-fluorophenyl]-2-{6,6-difluoro-2-azaspiro[3.3]heptan-2-yl}-5-(2,2,2-trifluoroethyl)oxazole-4-carboxamide], the values for the EC50 at TRPML1 (setting [1]) and in the assay with TFEB were 1000 to 10000 nM and 10 to 1000 nM, respectively.
Turning to `CC1CCC(Oc2ccc(NC(=O)c3nc(N4CCCC4)oc3CC(F)(F)F)cc2F)C1` (stereo not shown) [Example 50, N-(3-fluoro-4-((3-methylcyclopentyl)oxy)phenyl)-2-(pyrrolidin-1-yl)-5-(2,2,2-trifluoroethyl)oxazole-4-carboxamide], the EC50 on TRPML1 (setting [1]) and in the assay with TFEB was 1000 to 10000 nM in each case.
With `CC1CCCN1c1nc(C(=O)Nc2ccc(OC3CCCC3)c(F)c2)c(CC(F)(F)F)o1` (stereo not shown) [Example 54, N-(4-(cyclopentyloxy)-3-fluorophenyl)-2-(2-methylpyrrolidin-1-yl)-5-(2,2,2-trifluoroethyl)oxazole-4-carboxamide], the EC50 at TRPML1 (setting [1]) is 1000 to 10000 nM; in the assay with TFEB, 10000 to 100000 nM.
The like results for `CC1(C)CCCC1Oc1ccc(NC(=O)c2nc(N3CCCC3)oc2CC(F)(F)F)cc1F` (stereo not shown) [Example 55, N-(4-((2,2-dimethylcyclopentyl)oxy)-3-fluorophenyl)-2-(pyrrolidin-1-yl)-5-(2,2,2-trifluoroethyl)oxazole-4-carboxamide] were, in that order, 1000 to 10000 nM and 1000 to 10000 nM.
Turning to `O=C(Nc1ccc(OC2CCCC2)c(F)c1)c1nc(N2CCC3(COC3)C2)oc1CC(F)(F)F` [Example 64, N-(4-(cyclopentyloxy)-3-fluorophenyl)-2-(2-oxa-6-azaspiro[3.4]octan-6-yl)-5-(2,2,2-trifluoroethyl)oxazole-4-carboxamide], the EC50 on TRPML1 (setting [1]) and with TFEB was 1000 to 10000 nM throughout.
As to `O=C(Nc1ccc(OC2CCCCC2(F)F)c(F)c1)c1nc(N2CCC3(COC3)C2)oc1CC(F)(F)F` (stereo not shown) [Example 68, N-(4-((2,2-difluorocyclohexyl)oxy)-3-fluorophenyl)-2-(2-oxa-6-azaspiro[3.4]octan-6-yl)-5-(2,2,2-trifluoroethyl)oxazole-4-carboxamide], the EC50 at TRPML1 (setting [1]) and with TFEB was 10 to 1000 nM in each case.
`O=C(Nc1ccc(O[C@@H]2C[C@@H]3C[C@@H]3C2)c(F)c1)c1nc(N2CCC3(COC3)C2)oc1CC(F)(F)F` [Example 73, N-(4-{cis-bicyclo[3.1.0]hexan-3-yloxy}-3-fluorophenyl)-2-{2-oxa-6-azaspiro[3.4]octan-6-yl}-5-(2,2,2-trifluoroethyl)oxazole-4-carboxamide]: the EC50 on TRPML1 (setting [1]) and in the assay on TFEB was 10 to 1000 nM throughout.
With `O=C(Nc1ccc(O[C@@H]2C[C@@H]3C[C@@H]3C2)c(F)c1)c1nc(N2CCCC2)oc1CC(F)(F)F` [Example 74, N-(4-{cis-bicyclo[3.1.0]hexan-3-yloxy}-3-fluorophenyl)-2-(pyrrolidin-1-yl)-5-(2,2,2-trifluoroethyl)oxazole-4-carboxamide], the EC50 at TRPML1 (setting [1]) and with TFEB was 10 to 1000 nM in each case.
Take `O=C(Nc1ccc(O[C@@H]2C[C@@H]3C[C@@H]3C2)c(F)c1)c1nc(N2CCC3(CC3)C2)oc1CC(F)(F)F` [Example 75, 2-{5-azaspiro[2.4]heptan-5-yl}-N-(4-{cis-bicyclo[3.1.0]hexan-3-yloxy}-3-fluorophenyl)-5-(2,2,2-trifluoroethyl)oxazole-4-carboxamide]: the EC50 at TRPML1 (setting [1]) and with TFEB was 10 to 1000 nM each time.
Take `O=C(Nc1ccc(OC2CCCCC2(F)F)c(F)c1)c1nc(N2CCCC2)oc1CC(F)(F)F` (stereo not shown) [Example 76, N-{4-[(2,2-difluorocyclohexyl)oxy]-3-fluorophenyl}-2-(pyrrolidin-1-yl)-5-(2,2,2-trifluoroethyl)oxazole-4-carboxamide]: the EC50 at TRPML1 (setting [1]) and in the assay with TFEB was 10 to 1000 nM in each case.
For `O=C(Nc1ccc(N2CCC(F)(F)CC2)c(F)c1)c1nc(N2CC3(C2)CC(F)(F)C3)oc1CC(F)(F)F` [Example 77, 2-{6,6-difluoro-2-azaspiro[3.3]heptan-2-yl}-N-[4-(4,4-difluoropiperidin-1-yl)-3-fluorophenyl]-5-(2,2,2-trifluoroethyl)oxazole-4-carboxamide], the EC50 on TRPML1 (setting [1]) and in the assay with TFEB was 1000 to 10000 nM throughout.
For the molecule `O=C(Nc1ccc(N2CCCCC2)c(C(F)(F)F)c1)c1nc(N2CC3(C2)CC(F)(F)C3)oc1CC(F)(F)F` [Example 78, 2-{6,6-difluoro-2-azaspiro[3.3]heptan-2-yl}-N-[4-(piperidin-1-yl)-3-(trifluoromethyl)phenyl]-5-(2,2,2-trifluoroethyl)oxazole-4-carboxamide], the EC50 at TRPML1 (setting [1]) and in the assay on TFEB was 1000 to 10000 nM throughout.
Turning to `CN(c1ccc(NC(=O)c2nc(N3CCCC3)oc2CC(F)(F)F)cc1F)C1CCCC1(F)F` (stereo not shown) [Example 82, N-{4-[(2,2-difluorocyclopentyl)(methyl)amino]-3-fluorophenyl}-2-(pyrrolidin-1-yl)-5-(2,2,2-trifluoroethyl)oxazole-4-carboxamide], the results for the EC50 at TRPML1 (setting [1]) and in the assay with TFEB were 1000 to 10000 nM and 10 to 1000 nM, respectively.
Take `O=C(Nc1ccc(N2C3CCCC2C3)c(F)c1)c1nc(N2CCCC2)oc1CC(F)(F)F` [Example 83, N-(4-{6-azabicyclo[3.1.1]heptan-6-yl}-3-fluorophenyl)-2-(pyrrolidin-1-yl)-5-(2,2,2-trifluoroethyl)oxazole-4-carboxamide]: the EC50 on TRPML1 and in the assay with TFEB was 10 to 1000 nM throughout.
Consider `O=C(Nc1ccc(N2CCCCC2)c(O)c1)c1nc(N2CCCC2)oc1CC(F)(F)F` [Example 84, N-(3-hydroxy-4-(piperidin-1-yl)phenyl)-2-(pyrrolidin-1-yl)-5-(2,2,2-trifluoroethyl)oxazole-4-carboxamide], for which the figures for the EC50 on TRPML1 (setting [1]) and in the assay on TFEB were 1000 to 10000 nM and 10000 to 100000 nM, respectively.
For `Cc1oc(N2CCC3(COC3)C2)nc1C(=O)Nc1ccc(N2CCCCC2)c(F)c1` [Example 90, N-(3-fluoro-4-(piperidin-1-yl)phenyl)-5-methyl-2-(2-oxa-6-azaspiro[3.4]octan-6-yl)oxazole-4-carboxamide] the same measures were 1000 to 10000 nM and 1000 to 10000 nM.
Take `Cc1oc(N2CCC3(CC3)C2)nc1C(=O)Nc1ccc(N2CCCCC2)c(F)c1` [Example 91, N-(3-fluoro-4-(piperidin-1-yl)phenyl)-5-methyl-2-(5-azaspiro[2.4]heptan-5-yl)oxazole-4-carboxamide]: the EC50 at TRPML1 (setting [1]) and in the assay on TFEB was 1000 to 10000 nM in each case.
Consider `Cc1oc(N2CCC(CO)C2)nc1C(=O)Nc1ccc(N2CCCCC2)c(F)c1` (stereo not shown) [Example 96, N-(3-fluoro-4-(piperidin-1-yl)phenyl)-2-(3-(hydroxymethyl)pyrrolidin-1-yl)-5-methyloxazole-4-carboxamide], for which the EC50 on TRPML1 (setting [1]) and in the assay on TFEB was 10000 to 100000 nM throughout.
`CCOCc1oc(N2CCCC2)nc1C(=O)Nc1ccc(N2CCCCC2)c(F)c1` [Example 100, 5-(ethoxymethyl)-N-[3-fluoro-4-(piperidin-1-yl)phenyl]-2-(pyrrolidin-1-yl)oxazole-4-carboxamide]: the EC50 at TRPML1 (setting [1]) and with TFEB was 1000 to 10000 nM each time.
